What was measured:
[1] = Mouse C57BL/6; Dose IV: 1 mg/kg PO: 10 mg/kg
[2] = Rat Wistar-Han; Dose 0.3 mg/kg PO: 3 mg/kg
in vivo [3] = conditions: C57BL/6, mouse
in vivo [4] = conditions: Wistar-Han, rat

- Oral BA (% F) [1]: 6 % F
- Vss [2]: 1.1 L/kg
- half-life (in vivo [3]): 30 min
- Vd (in vivo [3]; intravenous, 1 mg/kg): 0.4 L/kg
- clearance (in vivo [3]; intravenous, 1 mg/kg): 14 mL/min/kg
- Cmax (in vivo [3]; po, 10 mg/kg): 946 nM
- Tmax (in vivo [3]; po, 10 mg/kg): 18 min
- AUC (in vivo [4]; iv, 0.3 mg/kg): 0.38 µM·h
- AUC (in vivo [4]; po, 3 mg/kg): 2.77 µM·h
- Cmax (in vivo [4]; po, 3 mg/kg): 756 nM
- Tmax (in vivo [4]; po, 3 mg/kg): 90 min
SMILES: Nc1ncc(-c2ncccc2OC(F)(F)F)nc1C(=O)Nc1ncccc1N1CCC(N)CC1 [Example 2, 3-amino-N-(3-(4-aminopiperidin-1-yl)pyridin-2-yl)-6-(3-(trifluoromethoxy)pyridin-2-yl)pyrazine-2-carboxamide]
